Test results from ChEMBL document CHEMBL1201862, “PubChem BioAssay data set” (2004).
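Step 1: Grow cells in 96-well plates. Step 2: Expose to compound for 48 hours at 5 concentrations. Step 3: Interpolate endpoints linearly; if unreached, use highest concentration. The concentration for 50% growth inhibition is given as GI50.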 The source made the active and inactive calls. No stated cut-off is given here; in the data, active = GI50 up to about 1.1 µM and inactive = higher.

Assays:
Experiment in all cases: NCI tumour cell line growth inhibition, 48 h
[1] = system: XF498
[2] = system: A498
[3] = system: SW-620
[4] = system: SK-OV-3
[5] = system: OVCAR-4
[6] = system: NCI-H23
[7] = system: 786-0
[8] = system: KM12
[9] = system: M14
[10] = system: HT-29
[11] = system: RXF 393
[12] = system: MOLT-4
[13] = system: OVCAR-3
[14] = system: HCC 2998
[15] = system: IGROV-1
[16] = system: TK-10
[17] = system: NCI-H460
[18] = system: K562
[19] = system: SF-295
[20] = system: UACC-257
[21] = system: SK-MEL-5
[22] = system: RXF 631
[23] = system: UACC-62
[24] = system: SNB-75
[25] = system: HL-60
[26] = system: A549
[27] = system: OVCAR-8
[28] = system: SK-MEL-28
[29] = system: LXFL 529
[30] = system: Malme-3M
[31] = system: DMS-273
[32] = system: HCT-116
[33] = system: SK-MEL-2
[34] = system: EKVX
[35] = system: NCI-H226
[36] = system: HOP-62
[37] = system: OVCAR-5
[38] = system: RPMI-8226
[39] = system: U-251
[40] = system: M19-MEL
[41] = system: UO-31
[42] = system: CCRF-CEM
[43] = system: CAKI-1
[44] = system: KM-20L2
[45] = system: DMS-114
[46] = system: HCT-15
[47] = system: ACHN
[48] = system: SNB-78
[49] = system: SF-539
[50] = system: DLD-1
[51] = system: SN12C
[52] = system: NCI-H522
[53] = system: LOX IMVI
[54] = system: HOP-92
[55] = system: SNB-19
[56] = system: HOP-18
[57] = system: COLO 205
[58] = system: SF-268

Question: Which results are given for `CCOC(=O)C(C)(c1cn(C)c2ccccc12)c1cn(C)c2ccccc12`?
Answer: GI50 [1]: 32.3 µM (inactive); GI50 [2]: > 100 µM (inactive); GI50 [3]: > 100 µM (inactive); GI50 [4]: > 100 µM (inactive); GI50 [5]: 32.5 µM (inactive); GI50 [6]: 44.7 µM (inactive); GI50 [7]: 69.2 µM (inactive); GI50 [8]: > 100 µM (inactive); GI50 [9]: > 100 µM (inactive); GI50 [10]: > 100 µM (inactive); GI50 [11]: 44.5 µM (inactive); GI50 [12]: > 100 µM (inactive); GI50 [13]: 45.8 µM (inactive); GI50 [14]: > 100 µM (inactive); GI50 [15]: > 100 µM (inactive); GI50 [16]: 83.9 µM (inactive); GI50 [17]: > 100 µM (inactive); GI50 [18]: 66.2 µM (inactive); GI50 [19]: 24.5 µM (inactive); GI50 [20]: > 100 µM (inactive); GI50 [21]: > 100 µM (inactive); GI50 [22]: 50.8 µM (inactive); GI50 [23]: 87.9 µM (inactive); GI50 [24]: 19 µM (inactive); GI50 [25]: > 100 µM (inactive); GI50 [26]: 81.5 µM (inactive); GI50 [27]: 52.2 µM (inactive); GI50 [28]: > 100 µM (inactive); GI50 [29]: > 100 µM (inactive); GI50 [30]: 67.3 µM (inactive); GI50 [31]: > 100 µM (inactive); GI50 [32]: 34.3 µM (inactive); GI50 [33]: > 100 µM (inactive); GI50 [34]: > 100 µM (inactive); GI50 [35]: 30.6 µM (inactive); GI50 [36]: 76.2 µM (inactive); GI50 [37]: > 100 µM (inactive); GI50 [38]: > 100 µM (inactive); GI50 [39]: 57.5 µM (inactive); GI50 [40]: > 100 µM (inactive); GI50 [41]: > 100 µM (inactive); GI50 [42]: > 100 µM (inactive); GI50 [43]: 41.6 µM (inactive); GI50 [44]: > 100 µM (inactive); GI50 [45]: 79.6 µM (inactive); GI50 [46]: > 100 µM; GI50 [47]: 77.1 µM (inactive); GI50 [48]: 70 µM (inactive); GI50 [49]: 49.7 µM (inactive); GI50 [50]: > 100 µM (inactive)

Question: What does the source list for `Clc1ccc(CCc2ccncn2)c(Cl)c1`?
Answer: GI50 [2]: 86.5 µM (inactive); GI50 [3]: > 100 µM (inactive); GI50 [4]: > 100 µM (inactive); GI50 [5]: > 100 µM (inactive); GI50 [6]: 49.3 µM (inactive); GI50 [7]: > 100 µM (inactive); GI50 [51]: > 100 µM (inactive); GI50 [52]: 37.7 µM (inactive); GI50 [8]: 63 µM (inactive); GI50 [9]: > 100 µM (inactive); GI50 [10]: > 100 µM (inactive); GI50 [11]: 27 µM (inactive); GI50 [12]: 29.3 µM (inactive); GI50 [13]: 39.5 µM (inactive); GI50 [14]: > 100 µM (inactive); GI50 [15]: > 100 µM (inactive); GI50 [16]: > 100 µM (inactive); GI50 [17]: > 100 µM (inactive); GI50 [18]: 63.8 µM (inactive); GI50 [19]: 61.4 µM (inactive); GI50 [20]: 38.1 µM (inactive); GI50 [21]: 19.5 µM (inactive); GI50 [22]: 60.1 µM (inactive); GI50 [23]: 53.2 µM (inactive); GI50 [24]: 68.5 µM (inactive); GI50 [25]: 30.1 µM (inactive); GI50 [26]: > 100 µM (inactive); GI50 [53]: > 100 µM (inactive); GI50 [54]: 54.6 µM (inactive); GI50 [27]: 97.3 µM (inactive); GI50 [28]: > 100 µM (inactive); GI50 [29]: 36.3 µM (inactive); GI50 [30]: 58.9 µM (inactive); GI50 [55]: 35.6 µM (inactive); GI50 [31]: 97.5 µM (inactive); GI50 [32]: 52.5 µM (inactive); GI50 [33]: > 100 µM (inactive); GI50 [34]: 9.68 µM (inactive); GI50 [35]: 60.5 µM (inactive); GI50 [36]: > 100 µM (inactive); GI50 [56]: 33.3 µM (inactive); GI50 [37]: > 100 µM (inactive); GI50 [38]: 25.5 µM (inactive); GI50 [39]: 41.5 µM (inactive); GI50 [40]: 47.8 µM (inactive); GI50 [41]: 38.5 µM (inactive); GI50 [57]: 64.9 µM (inactive); GI50 [43]: 50.2 µM (inactive); GI50 [44]: 73.5 µM (inactive); GI50 [45]: 30.1 µM (inactive); GI50 [46]: 79.6 µM; GI50 [47]: > 100 µM (inactive); GI50 [58]: 77.3 µM (inactive); GI50 [48]: 61.5 µM (inactive); GI50 [49]: > 100 µM (inactive); GI50 [50]: > 100 µM (inactive)
